Experimental data from patent US20240208989A1, “NOVEL 12-EPI-MUTILIN COMPOUNDS AND USES THEREOF” (NABRIVA THERAPEUTICS GMBH, priority 2021, published 2024).
In brackets after ≈: the same amount, converted by molar mass. Structures can show the parent of a compound that is named as a salt. Where two headings read alike, the source gives them in different places.

Assays:
[1] = tested on: Staphylococcus aureus cfr (+); experiment: MIC by standard broth microdilution (CLSI), CAMHB; format: cell-based; details: for MIC: Staphylococcus aureus, read-out: MIC Staphylococcus aureus cfr (+) (n = 2), Lefamulin resistant, n = 2 isolates
Protocol: (§1) The in vitro activity against bacteria including isolates that are resistant to Lefamulin was determined by standard broth microdilution according to the Clinical and Laboratory Standards Institute CLSI document (Performance Standards for Antimicrobial Susceptibility Testing) M100Ed29E (2019) and (Methods for Dilution Antimicrobial Susceptibility Test for Bacteria That Grow Aerobically) M07Ed11 (2018) or other years' versions thereof. The data were obtained using cation-adjusted Mueller Hinton broth medium (CAMHB).

[2] = tested on: Streptococcus pneumoniae ATCC49619; experiment: MIC by standard broth microdilution (CLSI), CAMHB; format: cell-based; details: for MIC: Streptococcus pneumoniae, ATCC49619
Protocol: as §1

[3] = tested on: Staphylococcus aureus ATCC49951; experiment: MIC by standard broth microdilution (CLSI), CAMHB; format: cell-based; details: for MIC: Staphylococcus aureus, ATCC49951
Protocol: as §1

[4] = tested on: Streptococcus agalactiae lsa(E); experiment: MIC by standard broth microdilution (CLSI), CAMHB; format: cell-based; details: for MIC: Streptococcus agalactiae, read-out: MIC Streptococcus agalactiae lsa(E) (n = 2), Lefamulin resistant, n = 2 isolates
Protocol: as §1

[5] = tested on: Staphylococcus aureus vga(A) (+); experiment: MIC by standard broth microdilution (CLSI), CAMHB; format: cell-based; details: Lefamulin resistant; for MIC: Staphylococcus aureus
Protocol: as §1

[6] = tested on: Borreliella spp.; experiment: MIC by broth microdilution against Borreliella strains; format: cell-based, Borreliella burgdorferi (n=5) and Borreliella garinii (n=1); details: BSK II medium, n = 6 isolates
Protocol: Minimal inhibitory concentrations (MIC) were determined against five (n=5) Borreliella burgdorferi isolates (ATCC 51990, 55131, 35211, 35210, 53899) and one (n=1) Borreliella garinii isolate (ATCC 51991) by broth microdilution technique ([…]., Jorgensen, J. H., Barbour, A. G. In vitro antimicrobial susceptibility testing of Boreliella burgdorferi: a microdilution MIC method and time-kill studies. […] Feng, J., Wang, T., Shi, W., et al. Identification of novel activity against Boreliella burgdorferi persisters using an FDA approved drug library. […] (2018) Methods for dilution antimicrobial susceptibility tests for bacteria that grow aerobically: Eleventh edition. […]; CLSI. (2021) Performance Standards for Antimicrobial Susceptibility Testing: Thirty-first Edition. M100-S31). Briefly, Borreliella spp. were grown at 36° C. under microaerophilic conditions in BSK II medium until the logarithmic or stationary growth phase was reached. The growth phase was determined by semiquantitative measurement of active and dormant cells by fluorescence microscopy of cells stained with the fluorescent dyes SYBR Green I and propidium iodide. An inoculum of 10^5-10^6 spirochetes/mL was used to inoculate broth microdilution plates containing serially 2-fold diluted test compounds.

[7] = tested on: Cutibacterium avidum; experiment: MIC by standard agar dilution (CLSI M11), anaerobic; format: cell-based; details: Wilkins-Chalgren-Agar, 48 h, 37° C., read-out: MIC Cutibacterium avidum (n = 5)
[8] = tested on: Cutibacterium acnes; experiment: as above; format: cell-based; details: Wilkins-Chalgren-Agar, 48 h, 37° C., read-out: MIC Cutibacterium acnes (n = 5)
[9] = tested on: Cutibacterium granulosum; experiment: as above; format: cell-based; details: Wilkins-Chalgren-Agar, 48 h, 37° C., read-out: MIC Cutibacterium granulosum (n = 7)
[10] = Cytotoxicity, human hepatocyte assay (ATPlite); format: cell-based; details: primary human hepatocytes
Protocol: The cytotoxicity for compounds of the present invention was determined using a human hepatocyte assay. Primary human hepatocytes were incubated with various test compound concentrations (in triplicate) for 2 hours. Viability of cells is then measured by the luminescence ATPlite detection assay system according to the manufacturer (Perkin Elmer). ATP is a marker for cell viability because it is present in all metabolically active cells and the concentration declines very rapidly when the cells undergo necrosis or apoptosis. The ATPlite assay system is based on the production of light caused by the reaction of ATP with added luciferase and D-luciferin, where the emitted light is proportional to the ATP concentration (within certain limits).

[11] = Lefamulin resistant, n = 2 isolates
[12] = 192 h, stationary growth phase, read after 8 days, read-out: MIC (μg/mL) for Stationary Growth Phase Culture (n = 6)
[13] = logarithmic growth phase, read after 5 or 6 days, read-out: MIC (μg/mL) for Logarithmic Growth Phase Culture (n = 6)

Molecule | MIC [6, 12] [µg/mL] | MIC [6, 13] [µg/mL] | MIC [7] [µg/mL] | MIC [8] [µg/mL] | MIC [9] [µg/mL] | other results
12-epi-12-desvinyl-14-O-[(azepan-4-ylsulfanyl)-acetyl]-12-((E)-2-pyridin-3-yl-ethenyl) mutilin hydrochloride [Example 154 of WO 2015/110481, reference compound] | – | – | – | – | – | MIC Staphylococcus aureus cfr (+) (n = 2) [1, 11]: 0.5 to 4 µg/mL; MIC Streptococcus pneumoniae ATCC49619 [2]: ≤0.03 µg/mL; MIC Staphylococcus aureus ATCC49951 [3]: ≤0.03 µg/mL; MIC Streptococcus agalactiae lsa(E) (n = 2) [4, 11]: 4 to 8 µg/mL; MIC Staphylococcus aureus vga(A) (+) [5]: 2 to 4 µg/mL
CC1(C)S[C@@H]2[C@H](NC(=O)[C@H](N)c3ccc(O)cc3)C(=O)N2[C@H]1C(=O)O [Amoxicillin] | 0.03 to 0.12 (≈ 0.0821 to 0.328 µM) | 0.03 to 0.12 (≈ 0.0821 to 0.328 µM) | – | – | – | –
CC[C@H]1OC(=O)[C@H](C)[C@@H](O[C@H]2C[C@@](C)(OC)[C@@H](O)[C@H](C)O2)[C@H](C)[C@@H](O[C@@H]2O[C@H](C)C[C@H](N(C)C)[C@H]2O)[C@](C)(O)C[C@@H](C)CN(C)[C@H](C)[C@@H](O)[C@]1(C)O [Azithromycin] | 0.001 to 0.004 (≈ 0.00134 to 0.00534 µM) | 0.001 to 0.004 (≈ 0.00134 to 0.00534 µM) | – | – | – | –
Cc1nccnc1/C=C/[C@@]1(C)C[C@@H](OC(=O)CSC2CCNCC2)[C@]2(C)[C@H](C)CC[C@]3(CCC(=O)[C@H]32)[C@@H](C)[C@@H]1O [BC-9842, 12-epi-12-desvinyl-14-O-[(Piperidin-4-ylsulfanyl]-acetyl]-12-[2-(3-methyl-pyrazin-2-yl)-ethenyl]-mutilin] | 0.001 to 0.004 (≈ 0.00175 to 0.00702 µM) | 0.001 to 0.004 (≈ 0.00175 to 0.00702 µM) | 0.015 to 0.25 (≈ 0.0263 to 0.439 µM) | 0.03 to 0.05 (≈ 0.0526 to 0.0877 µM) | 0.015 to 0.12 (≈ 0.0263 to 0.211 µM) | –
CO/N=C(\C(=O)N[C@@H]1C(=O)N2C(C(=O)O)=C(CSc3nc(=O)c(=O)[nH]n3C)CS[C@H]12)c1csc(N)n1 [Ceftriaxone] | 0.004 to 0.03 (≈ 0.00721 to 0.0541 µM) | 0.004 to 0.016 (≈ 0.00721 to 0.0289 µM) | – | – | – | –
CO/N=C(\C(=O)N[C@@H]1C(=O)N2C(C(=O)O)=C(COC(N)=O)CS[C@H]12)c1ccco1 [Cefuroxime] | 0.016 to 0.25 (≈ 0.0377 to 0.589 µM) | 0.016 to 0.25 (≈ 0.0377 to 0.589 µM) | – | – | – | –
C[C@H]1c2cccc(O)c2C(=O)C2=C(O)[C@]3(O)C(=O)C(C(N)=O)=C(O)[C@@H](N(C)C)[C@@H]3[C@@H](O)[C@@H]21 [Doxycycline] | 0.03 to 0.5 (≈ 0.0675 to 1.13 µM) | 0.03 to 0.5 (≈ 0.0675 to 1.13 µM) | – | – | – | –
CC[C@H]1OC(=O)[C@H](C)[C@@H](O[C@H]2C[C@@](C)(OC)[C@@H](O)[C@H](C)O2)[C@H](C)[C@@H](O[C@@H]2O[C@H](C)C[C@H](N(C)C)[C@H]2O)[C@](C)(O)C[C@@H](C)C(=O)[C@H](C)[C@@H](O)[C@]1(C)O [Erythromycin] | 0.001 to 0.004 (≈ 0.00136 to 0.00545 µM) | 0.002 to 0.016 (≈ 0.00273 to 0.0218 µM) | – | – | – | –
C[C@@H]1CC[C@@]23CCC(=O)[C@H]2[C@]1(C)[C@H](OC(=O)CS[C@H]1CO[C@H]2[C@@H]1OC[C@@H]2N)C[C@](C)(/C=C/c1cccnc1)[C@@H](O)[C@@H]3C [Example 1, 12-epi-12-Desvinyl-14-O-{[(3S,3aR,6S,6aS)-3-amino-2,3,3a,5,6,6a-hexahydrofuro[3,2-b]furan-6-yl]sulfanylacetyl}-12-[(E)-2-(3-pyridyl)-ethenyl]-mutilin dihydrochloride] | 0.001 to 0.004 | 0.001 to 0.002 | 0.015 to 0.06 | 0.015 to 0.12 | 0.015 to 0.03 | IC50 at 2 h [10]: 215 µM; MIC [1]: 0.12 to 0.5 µg/mL; MIC [2]: ≤ 0.03 µg/mL; MIC [3]: ≤ 0.03 µg/mL; MIC [4]: 0.06 to 0.12 µg/mL; MIC [5]: 0.5 µg/mL
C[C@@H]1CC[C@@]23CCC(=O)[C@H]2[C@]1(C)[C@H](OC(=O)CS[C@H]1CO[C@H]2[C@@H]1OC[C@@H]2N)C[C@](C)(/C=C/c1cncnc1)[C@@H](O)[C@@H]3C [Example 2, 12-epi-12-Desvinyl-14-O-{[(3S,3aR,6S,6aS)-3-amino-2,3,3a,5,6,6a-hexahydrofuro[3,2-b]furan-6-yl]sulfanylacetyl}-12-[(E)-2-(pyrimidin-5-yl)-ethenyl]-mutilin dihydrochloride] | 0.001 to 0.004 | 0.001 to 0.002 | 0.015 to 0.06 | 0.015 to 0.12 | 0.015 to 0.03 | IC50 at 2 h [10]: > 609 µM; MIC [1]: 0.12 to 1 µg/mL; MIC [2]: ≤ 0.03 µg/mL; MIC [3]: ≤ 0.03 µg/mL; MIC [4]: 0.03 to 0.06 µg/mL; MIC [5]: 1 µg/mL
Cc1nccnc1/C=C/[C@@]1(C)C[C@@H](OC(=O)CS[C@H]2CO[C@H]3[C@@H]2OC[C@@H]3N)[C@]2(C)[C@H](C)CC[C@]3(CCC(=O)[C@H]32)[C@@H](C)[C@@H]1O [Example 3, 12-epi-12-Desvinyl-14-O-{[(3S,3aR,6S,6aS)-3-amino-2,3,3a,5,6,6a-hexahydrofuro[3,2-b]furan-6-yl]sulfanylacetyl}-12-[(E)-2-(3-methyl-pyrazin-2-yl)-ethenyl]-mutilin dihydrochloride] | 0.001 to 0.008 | 0.001 to 0.004 | 0.03 to 0.25 | 0.03 to 0.5 | 0.015 to 0.12 | IC50 at 2 h [10]: > 433 µM; MIC [1]: 1 µg/mL; MIC [2]: ≤ 0.03 µg/mL; MIC [3]: ≤ 0.03 µg/mL; MIC [4]: 0.5 to 1 µg/mL; MIC [5]: 1 µg/mL
C=C[C@]1(C)C[C@@H](OC(=O)CS[C@@H]2CC[C@@H](N)C[C@H]2O)[C@]2(C)[C@H](C)CC[C@]3(CCC(=O)[C@H]32)[C@@H](C)[C@@H]1O [Lefamulin, reference compound] | 0.001 to 0.008 (≈ 0.00197 to 0.0158 µM) | 0.001 to 0.008 (≈ 0.00197 to 0.0158 µM) | 0.03 to 0.06 (≈ 0.0591 to 0.118 µM) | 0.03 to 0.5 (≈ 0.0591 to 0.985 µM) | 0.015 to 0.25 (≈ 0.0295 to 0.492 µM) | MIC [1]: 16 µg/mL (≈ 31.5 µM); MIC [2]: ≤ 0.03 µg/mL; MIC [3]: ≤ 0.03 µg/mL; MIC [4]: 16 µg/mL (≈ 31.5 µM); MIC [5]: 8 µg/mL (≈ 15.8 µM)
C[C@H]1COc2c(N3CCN(C)CC3)c(F)cc3c(=O)c(C(=O)O)cn1c23 [Levofloxacin] | 2 to 8 (≈ 5.53 to 22.1 µM) | 2 to 4 (≈ 5.53 to 11.1 µM) | – | – | – | –
C=C[C@]1(C)C[C@@H](OC(=O)CO)[C@]2(C)[C@H](C)CC[C@]3(CCC(=O)[C@H]32)[C@@H](C)[C@@H]1O [Pleuromutilin] | 0.12 to 2 (≈ 0.317 to 5.28 µM) | 0.12 to 1 (≈ 0.317 to 2.64 µM) | – | – | – | –
